Where “and” joins values, the source holds several entries; their conditions need not be identical. Identical values can stand only once. Inconclusive results and toxic doses are left out.
Tested on: L1210 leukemia ip in BDF1 mice, survival T/C
Test: NCI In Vivo Anticancer Drug Screen. Data for tumor model L1210 Leukemia (intraperitoneal) in B6D2F1 (BDF1) mice
Details: endpoint: mean survival time, higher = longer survival
Summary of the method: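 Tumor cells were implanted, animals were treated, and survival was followed. The result divides the treated measurement by the vehicle-control measurement.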

[1] = dose: 50.0 mg/kg/injection, schedule: Q01DX001 (ip), vehicle: carboxymethylcellulose (CMC)
[2] = dose: 100.0 mg/kg/injection, schedule: Q01DX001 (ip), vehicle: carboxymethylcellulose (CMC)
[3] = dose: 200.0 mg/kg/injection, schedule: Q01DX001 (ip), vehicle: carboxymethylcellulose (CMC)
[4] = dose: 200.0 mg/kg/injection, schedule: Q01DX001 (ip), vehicle: saline
[5] = dose: 100.0 mg/kg/injection, schedule: Q04DX003 (ip), vehicle: Klucel (hydroxypropylcellulose) (HPC)
[6] = dose: 200.0 mg/kg/injection, schedule: Q04DX003 (ip), vehicle: Klucel (hydroxypropylcellulose) (HPC)
[7] = dose: 400.0 mg/kg/injection, schedule: Q04DX003 (ip), vehicle: Klucel (hydroxypropylcellulose) (HPC)
[8] = dose: 100.0 mg/kg/injection, schedule: Q01DX001 (ip), vehicle: saline
[9] = dose: 400.0 mg/kg/injection, schedule: Q01DX001 (ip), vehicle: saline
[10] = dose: 400.0 mg/kg/injection, schedule: Q01DX001 (ip), vehicle: carboxymethylcellulose (CMC)
[11] = dose: 100.0 mg/kg/injection, schedule: Q04DX003 (ip), vehicle: saline with Tween-80
[12] = dose: 200.0 mg/kg/injection, schedule: Q04DX003 (ip), vehicle: saline with Tween-80
[13] = dose: 100.0 mg/kg/injection, schedule: Q01DX001 (ip), vehicle: other
[14] = dose: 200.0 mg/kg/injection, schedule: Q01DX001 (ip), vehicle: other
[15] = dose: 400.0 mg/kg/injection, schedule: Q01DX001 (ip), vehicle: other
[16] = dose: 25.0 mg/kg/injection, schedule: Q04DX003 (ip), vehicle: saline
[17] = dose: 50.0 mg/kg/injection, schedule: Q04DX003 (ip), vehicle: saline
[18] = dose: 100.0 mg/kg/injection, schedule: Q04DX003 (ip), vehicle: saline
[19] = dose: 200.0 mg/kg/injection, schedule: Q04DX003 (ip), vehicle: saline
[20] = dose: 100.0 mg/kg/injection, schedule: Q01DX009 (ip), vehicle: saline
[21] = dose: 200.0 mg/kg/injection, schedule: Q01DX009 (ip), vehicle: saline
[22] = dose: 400.0 mg/kg/injection, schedule: Q04DX003 (ip), vehicle: saline

SMILES: COc1cc(C=Nc2cccc(F)c2)ccc1N(CCCl)CCCl
- T/C (dose: 2.5 mg/kg/injection, schedule: Q01DX009 (ip), vehicle: carboxymethylcellulose (CMC)): 96 % of control
- T/C (dose: 5.0 mg/kg/injection, schedule: Q01DX009 (ip), vehicle: carboxymethylcellulose (CMC)): 104 % of control
- T/C (dose: 10.0 mg/kg/injection, schedule: Q01DX009 (ip), vehicle: acetone): 118 % of control
- T/C (dose: 10.0 mg/kg/injection, schedule: Q01DX009 (ip), vehicle: carboxymethylcellulose (CMC)): 108 % of control
- T/C (dose: 45.0 mg/kg/injection, schedule: Q01DX001 (ip), vehicle: saline): 110 % of control
- T/C [1]: 101 % of control
- T/C (dose: 67.0 mg/kg/injection, schedule: Q01DX001 (ip), vehicle: saline): 115 % of control
- T/C [2]: 98 % of control
- T/C [3]: 103 % of control
- T/C [4]: 152 % of control

SMILES: O=C(O)c1ccc(S(=O)(=O)c2ccc(C(=O)O)cc2)cc1
- T/C [5]: 103 % of control
- T/C [6]: 97 % of control
- T/C [7]: 88 % of control

SMILES: C=C(Br)CNC(N)=S
- T/C (dose: 50.0 mg/kg/injection, schedule: Q01DX009 (ip), vehicle: Klucel (hydroxypropylcellulose) (HPC)): 96 % of control
- T/C (dose: 100.0 mg/kg/injection, schedule: Q01DX009 (ip), vehicle: Klucel (hydroxypropylcellulose) (HPC)): 100 % of control
- T/C [5]: 94 % of control
- T/C (dose: 200.0 mg/kg/injection, schedule: Q01DX009 (ip), vehicle: Klucel (hydroxypropylcellulose) (HPC)): 102 % of control
- T/C [6]: 95 % of control

SMILES: Cc1cccc(N2CCN(CC(O)COc3cccc4ccccc34)CC2)c1 (stereo not drawn)
- T/C [8]: 95 % of control
- T/C [4]: 98 % of control
- T/C [9]: 95 % of control

SMILES: O=C(CCCCCCCCC(=O)NCC1(c2ccccc2)CCNCC1)NCC1(c2ccccc2)CCNCC1
- T/C (dose: 1.25 mg/kg/injection, schedule: Q01DX Z (ip), vehicle: saline): 89 % of control
- T/C (dose: 2.5 mg/kg/injection, schedule: Q01DX Z (ip), vehicle: saline): 88 % of control
- T/C (dose: 10.0 mg/kg/injection, schedule: Q01DX Z (ip), vehicle: saline): 97 % of control and 88 % of control
- T/C (dose: 30.0 mg/kg/injection, schedule: Q01DX Z (ip), vehicle: saline): 87 % of control

SMILES: Nc1ccc([N+](=O)[O-])c2ccccc12
- T/C [1]: 87 % of control
- T/C [2]: 93 % of control
- T/C [3]: 98 % of control
- T/C [10]: 87 % of control

SMILES: CCCCC(CC)CO.[Ti] (stereo not drawn)
- T/C [11]: 96 % of control
- T/C [12]: 96 % of control

SMILES: CC(C)(CC(=O)O)NC(=O)c1ccccc1
- T/C [13]: 95 % of control
- T/C [14]: 106 % of control
- T/C [15]: 103 % of control

SMILES: Nc1ccc2c(c1)C(=O)c1c(F)cccc1-2
- T/C (dose: 100.0 mg/kg/injection, schedule: Q04DX003 (ip), vehicle: acetone): 98 % of control
- T/C (dose: 200.0 mg/kg/injection, schedule: Q04DX003 (ip), vehicle: acetone): 94 % of control
- T/C (dose: 400.0 mg/kg/injection, schedule: Q04DX003 (ip), vehicle: acetone): 91 % of control

SMILES: Nc1ncnc(N2CCOCC2)n1
- T/C [2]: 96 % of control
- T/C [3]: 107 % of control
- T/C [10]: 100 % of control

SMILES: CCOC(=O)c1cccc2cccc(C(=O)OCC)c12
- T/C [1]: 97 % of control
- T/C [2]: 101 % of control
- T/C [3]: 101 % of control
- T/C [10]: 97 % of control

SMILES: O=C(Nc1ccc2c(c1)Cc1cc(Br)ccc1-2)C(F)(F)F
- T/C (dose: 100.0 mg/kg/injection, schedule: Q01DX009 (ip), vehicle: saline with Tween-80): 97 % of control
- T/C (dose: 200.0 mg/kg/injection, schedule: Q01DX009 (ip), vehicle: saline with Tween-80): 92 % of control
- T/C (dose: 400.0 mg/kg/injection, schedule: Q01DX009 (ip), vehicle: saline with Tween-80): 94 % of control

SMILES: O=CNc1ccccc1Sc1ccc(C(=O)O)cc1[N+](=O)[O-]
- T/C [5]: 100 % of control
- T/C [6]: 107 % of control
- T/C [7]: 104 % of control

SMILES: C1=C(c2ccc3ccccc3c2)Nc2ccccc2S1
- T/C (dose: 100.0 mg/kg/injection, schedule: Q04DX002 (ip), vehicle: gum acacia): 96 % of control
- T/C (dose: 200.0 mg/kg/injection, schedule: Q04DX002 (ip), vehicle: gum acacia): 96 % of control
- T/C (dose: 400.0 mg/kg/injection, schedule: Q04DX002 (ip), vehicle: gum acacia): 88 % of control

SMILES: Cn1c(=O)c2c(nc(Cc3ccc(NC(=O)c4ccc(C(=O)Nc5ccc(Cc6nc7c(c(=O)n(C)c(=O)n7C)n6C)cc5)cc4)cc3)n2C)n(C)c1=O
- T/C (dose: 50.0 mg/kg/injection, schedule: Q01DX001 (ip), vehicle: other): 97 % of control
- T/C [13]: 94 % of control
- T/C [14]: 94 % of control
- T/C [15]: 92 % of control

SMILES: CNC(C)Cc1ccccc1OC (stereo not drawn)
- T/C [16]: 103 % of control
- T/C [17]: 101 % of control
- T/C [18]: 92 % of control

SMILES: O=C1NC(=O)C([n+]2ccccc2)=C1[O-]
- T/C [16]: 110 % of control
- T/C [17]: 110 % of control
- T/C [18]: 94 % of control and 100 % of control
- T/C [19]: 96 % of control

SMILES: Cn1cnc2c1c(=N)ncn2O
- T/C [13]: 103 % of control
- T/C (dose: 100.0 mg/kg/injection, schedule: Q04DX003 (ip), vehicle: other): 107 % of control
- T/C [14]: 103 % of control
- T/C (dose: 200.0 mg/kg/injection, schedule: Q04DX003 (ip), vehicle: other): 113 % of control
- T/C [15]: 103 % of control
- T/C (dose: 400.0 mg/kg/injection, schedule: Q04DX003 (ip), vehicle: other): 113 % of control

SMILES: COC(=O)C(N)CSC (stereo not drawn)
- T/C [20]: 101 % of control
- T/C [18]: 101 % of control
- T/C [21]: 98 % of control
- T/C [19]: 97 % of control
- T/C (dose: 400.0 mg/kg/injection, schedule: Q01DX009 (ip), vehicle: saline): 95 % of control
- T/C [22]: 101 % of control

SMILES: O=C(O)CCCN1C/C(=C\c2ccc(Cl)cc2)C(=O)C1=O
- T/C [8]: 97 % of control
- T/C [18]: 98 % of control
- T/C [4]: 102 % of control
- T/C [19]: 98 % of control
- T/C [9]: 107 % of control
- T/C [22]: 96 % of control

SMILES: CS(C)(C)N1C(=O)c2ccccc2C1=O
- T/C (dose: 87.5 mg/kg/injection, schedule: Q01DX009 (ip), vehicle: Klucel (hydroxypropylcellulose) (HPC)): 98 % of control
- T/C (dose: 175.0 mg/kg/injection, schedule: Q01DX009 (ip), vehicle: Klucel (hydroxypropylcellulose) (HPC)): 96 % of control

SMILES: CC(C)N(CCC#N)C(=S)Nc1cccc(C(F)(F)F)c1
- T/C (dose: 100.0 mg/kg/injection, schedule: Q01DX009 (ip), vehicle: other): 102 % of control
- T/C (dose: 200.0 mg/kg/injection, schedule: Q01DX009 (ip), vehicle: other): 104 % of control
- T/C (dose: 400.0 mg/kg/injection, schedule: Q01DX009 (ip), vehicle: other): 103 % of control

SMILES: Cc1cc(N)ccc1S(=O)(=O)F
- T/C [11]: 103 % of control
- T/C [12]: 103 % of control
- T/C (dose: 400.0 mg/kg/injection, schedule: Q04DX003 (ip), vehicle: saline with Tween-80): 100 % of control

SMILES: CCOc1nc(SCC)ncc1C
- T/C (dose: 100.0 mg/kg/injection, schedule: Q01DX009 (ip), vehicle: water): 107 % of control
- T/C (dose: 100.0 mg/kg/injection, schedule: Q04DX003 (ip), vehicle: water): 101 % of control
- T/C (dose: 200.0 mg/kg/injection, schedule: Q01DX009 (ip), vehicle: water): 106 % of control
- T/C (dose: 200.0 mg/kg/injection, schedule: Q04DX003 (ip), vehicle: water): 95 % of control
- T/C (dose: 400.0 mg/kg/injection, schedule: Q04DX003 (ip), vehicle: water): 103 % of control

SMILES: O=CN1CCCCC1
- T/C [8]: 97 % of control
- T/C [4]: 105 % of control

SMILES: Nc1nc2c(c(-c3ccccc3)n1)CN(c1ccc(Br)cc1)C2=O
- T/C (dose: 50.0 mg/kg/injection, schedule: Q01DX009 (ip), vehicle: saline): 95 % of control
- T/C [20]: 92 % of control
- T/C [18]: 90 % of control
- T/C [21]: 92 % of control
- T/C [19]: 95 % of control
- T/C [22]: 90 % of control

Reference: PubChem BioAssay AID248 (DTP/NCI, 2004)
